According to patent publication US10501421B1, “Substituted benzimidazoles as modulators of Ras signaling” (VANDERBILT UNIVERSITY, priority 2017, dated 2019):
pEC50, pKi: −log10 of the molar value. Counter-ions that a name gives are not always drawn.

Tests used:
[1] = biological target: Ras GEF SOS (Son of Sevenless) (Homo sapiens, UniProt Q07889); test: SOS-mediated nucleotide exchange on Ras (BODIPY-GDP fluorescence); assay type: biochemical; details: SOS-mediated exchange of BODIPY-GDP for GTP on Ras
Procedure: Compounds of the present invention were tested for their ability to modify the rate at which Ras exchanges a labeled nucleotide guanosine diphosphate (GDP) analog for guanosine triphosphate (GTP). Briefly, test compounds, then GTP and the Ras GEF SOS (Son of Sevenless) are added to a buffered solution containing Ras protein loaded with BODIPY-GDP. Changes in fluoresence indicating exchange of the labeled GDP for GTP are monitored over time. Raw fluorescence data was fit to a single exponential decay function and derived rates were plotted as mean values. EC50 values were calculated by plotting mean derived rates as a function of compound concentration and fit using a four-parameter dose-response curve. This assay is performed in a method analogous to the assay disclosed in: Burns, M. C.; Sun, Q.; Daniels, R. N.; Camper, D. V.; Kennedy, J. P.; Phan, J.; Olejniczak, E. O.; Lee, T.; Waterson, A. G.; Rossanese, O. W.; Fesik, S. W. “Approach for targeting Ras with small molecules that activate SOS-mediated nucleotide exchange” Proc. Natl. Acad. Sci. 2014; 11(9): 3401-3406. PMCID: PMC3948241.

Son of Sevenless (SOS) = biological target: T1, Son of Sevenless (SOS) (Homo sapiens, UniProt Q07889); test: Binding to SOS, fluorescence polarization anisotropy (FPA) probe displacement; details: displacement of FITC-conjugated probe (Example 285), affinity calculated from IC50
T1 sequence (Q07889 564-1049 limits assumed): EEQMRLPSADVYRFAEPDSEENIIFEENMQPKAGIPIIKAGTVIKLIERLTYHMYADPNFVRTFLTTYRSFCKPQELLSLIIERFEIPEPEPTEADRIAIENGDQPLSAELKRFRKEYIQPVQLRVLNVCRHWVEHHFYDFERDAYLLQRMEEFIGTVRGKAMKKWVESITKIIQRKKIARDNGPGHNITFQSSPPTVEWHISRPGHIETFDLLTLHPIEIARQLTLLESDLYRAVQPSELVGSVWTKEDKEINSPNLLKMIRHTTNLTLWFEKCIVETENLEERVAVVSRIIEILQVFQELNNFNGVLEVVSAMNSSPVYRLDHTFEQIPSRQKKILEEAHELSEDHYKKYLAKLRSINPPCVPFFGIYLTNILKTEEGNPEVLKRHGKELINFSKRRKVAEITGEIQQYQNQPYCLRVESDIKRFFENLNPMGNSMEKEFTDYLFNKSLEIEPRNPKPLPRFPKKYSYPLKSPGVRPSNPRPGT
Procedure: Compounds of the present invention were tested for their ability to bind to the Ras guanine exchange factor (GEF) Son of Sevenless (SOS). Binding to SOS was measured using a Fluorescence polarization anisotropy (FPA) assay that assesses the ability of a test compound to displace a fluorescent FITC-conjugated compound (Example 285). Briefly, the labeled probe compound is incubated with SOS in buffer. Changes in anisotropy indicative of displacement of the labeled probe for a test compound are assessed over a dose range of test compound. Data was analyzed by plotting fluorescence anisotropy values as a function of compound concentration. IC50 values were determined using a four-parameter dose-response (variable slope) and binding affinities were calculated from this IC50 value. This assay is performed in a method analogous to the assay disclosed in: Burns, M. C.; Sun, Q.; Daniels, R. N.; Camper, D. V.; Kennedy, J. P.; Phan, J.; Olejniczak, E. O.; Lee, T.; Waterson, A. G.; Rossanese, O. W.; Fesik, S. W. “Approach for targeting Ras with small molecules that activate SOS-mediated nucleotide exchange” Proc. Natl. Acad. Sci. 2014; 11(9): 3401-3406. PMCID: PMC3948241.

Ras GEF SOS (Son of Sevenless), sequence (P01112 1-166 partner limits assumed, one chain of several): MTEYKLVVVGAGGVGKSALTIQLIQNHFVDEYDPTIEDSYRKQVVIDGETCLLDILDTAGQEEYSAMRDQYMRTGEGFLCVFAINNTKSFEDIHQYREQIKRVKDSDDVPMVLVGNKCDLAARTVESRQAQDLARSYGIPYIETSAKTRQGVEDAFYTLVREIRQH

SMILES	pEC50 [1]	pKi (Son of Sevenless (SOS))
Fc1ccc(Cn2c(N3CCNCC3)nc3ccccc32)cc1Cl [Example 7, 1-(3-chloro-4-fluorobenzyl)-2-(piperazin-1-yl)-1H-benzo[d]imidazole trifluoroacetate]	4.52 to 5.30	< 5.30
Fc1ccc(Cn2c(N3CCNCC3)nc3ccccc32)cc1 [Example 10, 1-(4-fluorobenzyl)-2-(piperazin-1-yl)-1H-benzo[d]imidazole trifluoroacetate]	4.00 to 4.52	< 5.30
Cc1cc2nc(N3CCNCC3)n(Cc3ccc(F)c(Cl)c3)c2cc1C [Example 16, 1-(3-chloro-4-fluorobenzyl)-5,6-dimethyl-2-(piperazin-1-yl)-1H-benzo[d]imidazole trifluoroacetate]	5.30 to 6.00	5.30 to 6.00
Cc1cc2nc(NCCN)n(Cc3ccc(F)c(Cl)c3)c2cc1C [Example 17, N1-(1-(3-chloro-4-fluorobenzyl)-5,6-dimethyl-1H-benzo[d]imidazol-2-yl)ethane-1,2-diamine trifluoroacetate]	5.30 to 6.00	5.30 to 6.00
Cc1cc2nc(N3CCNCC3)n(Cc3cc(F)cc(F)c3)c2cc1C [Example 18, 1-(3,5-difluorobenzyl)-5,6-dimethyl-2-(piperazin-1-yl)-1H-benzo[d]imidazole trifluoroacetate]	4.52 to 5.30	< 5.30
Cc1cc2nc(N3CCNCC3)n(Cc3ccc(Cl)cc3)c2cc1C [Example 19, 1-(4-chlorobenzyl)-5,6-dimethyl-2-(piperazin-1-yl)-1H-benzo[d]imidazole trifluoroacetate]	4.52 to 5.30	< 5.30
Cc1cc2nc(NCCN)n(Cc3ccc(Cl)cc3)c2cc1C [Example 20, N^1-(1-(4-chlorobenzyl)-5,6-dimethyl-1H-benzo[d]imidazol-2-yl)ethane-1,2-diamine trifluoroacetate]	4.52 to 5.30	< 5.30
Cc1cc2nc(N3CCNCC3)n(Cc3ccc(F)cc3)c2cc1C [Example 21, 1-(4-fluorobenzyl)-5,6-dimethyl-2-(piperazin-1-yl)-1H-benzo[d]imidazole trifluoroacetate]	4.52 to 5.30	< 5.30
Cc1cc2nc(NCCN)n(Cc3ccc(F)cc3)c2cc1C [Example 22, N^1-(1-(4-fluorobenzyl)-5,6-dimethyl-1H-benzo[d]imidazol-2-yl)ethane-1,2-diamine trifluoroacetate]	4.52 to 5.30	< 5.30
Cc1cc2nc(N3CCN(C)CC3)n(Cc3ccc(F)cc3)c2cc1C [Example 24, 1-(4-fluorobenzyl)-5,6-dimethyl-2-(4-methylpiperazin-1-yl)-1H-benzo[d]imidazole trifluoroacetate]	5.30 to 6.00	< 5.30
Cc1cc2nc(NCCO)n(Cc3ccc(F)c(Cl)c3)c2cc1C [Example 26, 2-((1-(3-chloro-4-fluorobenzyl)-5,6-dimethyl-1H-benzo[d]imidazol-2-yl)amino)ethan-1-ol]	4.52 to 5.30	< 5.30
Cc1cc2nc(NCCN3CCOCC3)n(Cc3cc(F)cc(F)c3)c2cc1C [Example 31, 1-(3,5-difluorobenzyl)-5,6-dimethyl-N-(2-morpholinoethyl)-1H-benzo[d]imidazol-2-amine trifluoroacetate]	4.52 to 5.30	< 5.30
Cc1cc2nc(NCCN)n(Cc3cccc(C(F)(F)F)c3)c2cc1C [Example 33, N^1-(5,6-dimethyl-1-(3-(trifluoromethyl)benzyl)-1H-benzo[d]imidazol-2-yl)ethane-1,2-diamine trifluoroacetate]	5.30 to 6.00	< 5.30
Cc1cc2nc(N3CCNCC3)n(Cc3cccc(Br)c3)c2cc1C [Example 34, 1-(3-bromobenzyl)-5,6-dimethyl-2-(piperazin-1-yl)-1H-benzo[d]imidazole trifluoroacetate]	4.52 to 5.30	< 5.30
Cc1cc2nc(NCCN)n(Cc3cccc(Br)c3)c2cc1C [Example 35, N^1-(1-(3-bromobenzyl)-5,6-dimethyl-1H-benzo[d]imidazol-2-yl)ethane-1,2-diamine trifluoroacetate]	5.30 to 6.00	5.30 to 6.00

Other lines, results leading:

pEC50 [1]	pKi (Son of Sevenless (SOS))	SMILES
4.52 to 5.30	5.30 to 6.00	CCCN1CC[C@@H](C(=O)c2ccccc2)C1c1cc(Cl)cc2c1nc(N1CCNCC1)n2Cc1cc(C)c(F)c(C)c1 (stereo in doubt) [Example 149, ((2S,3R)-2-(6-chloro-1-(4-fluoro-3,5-dimethylbenzyl)-2-(piperazin-1-yl)-1H-benzo[d]imidazol-4-yl)-1-propylpyrrolidin-3-yl)(phenyl)methanone trifluoroacetate]
5.30 to 6.00	5.30 to 6.00	CCCN1CC[C@@H](C(=O)c2ccccc2)C1c1cc(Cl)cc2c1nc(N1CCNCC1)n2Cc1ccc(F)c(Cl)c1 (stereo in doubt) [Example 154, ((2S,3R)-2-(6-chloro-1-(3-chloro-4-fluorobenzyl)-2-(piperazin-1-yl)-1H-benzo[d]imidazol-4-yl)-1-propylpyrrolidin-3-yl)(phenyl)methanone trifluoroacetate]
4.52 to 5.30	< 5.30	Cc1cc2nc(N3CCCNCC3)n(Cc3ccc(F)c(Cl)c3)c2cc1C [Example 36, 1-(3-chloro-4-fluorobenzyl)-2-(1,4-diazepan-1-yl)-5,6-dimethyl-1H-benzo[d]imidazole trifluoroacetate]
4.52 to 5.30	< 5.30	Cc1cc2nc(N3CCNCC3)n(CC3CCCCC3)c2cc1C [Example 37, 1-(cyclohexylmethyl)-5,6-dimethyl-2-(piperazin-1-yl)-1H-benzo[d]imidazole trifluoroacetate]
–	6.00 to 6.30	CCCNC(=O)c1cnn(CC(C)C)c1-c1cc(C)cc2c1nc(N1CCNCC1)n2Cc1cc(C)c(F)c(C)c1 [Example 181, 5-(1-(4-fluoro-3,5-dimethylbenzyl)-6-methyl-2-(piperazin-1-yl)-1H-benzo[d]imidazol-4-yl)-1-isobutyl-N-propyl-1H-pyrazole-4-carboxamide trifluoroacetate]
–	6.00 to 6.30	Cc1cc(N2CCN(C(C)C)CC2)c2nc(N3CCNCC3)n(Cc3cc(C)c(F)c(C)c3)c2c1 [Example 194, 1-(4-fluoro-3,5-dimethylbenzyl)-4-(4-isopropylpiperazin-1-yl)-6-methyl-2-(piperazin-1-yl)-1H-benzo[d]imidazole trifluoroacetate]
–	6.00 to 6.30	Cc1cc(OCCNCCO)c2nc(N3CCNCC3)n(Cc3cc(C)c(F)c(C)c3)c2c1 [Example 199, 2-((2-((1-(4-fluoro-3,5-dimethylbenzyl)-6-methyl-2-(piperazin-1-yl)-1H-benzo[d]imidazol-4-yl)oxy)ethyl)amino)ethan-1-ol]
–	< 5.30	Cc1cc(O[C@H]2CCNC2)c2nc(N3CCNCC3)n(Cc3cc(C)c(F)c(C)c3)c2c1 [Example 200, (S)-1-(4-fluoro-3,5-dimethylbenzyl)-6-methyl-2-(piperazin-1-yl)-4-(pyrrolidin-3-yloxy)-1H-benzo[d]imidazole]
–	6.00 to 6.30	Cc1cc(OCC2CCNCC2)c2nc(N3CCNCC3)n(Cc3cc(C)c(F)c(C)c3)c2c1 [Example 202, 1-(4-fluoro-3,5-dimethylbenzyl)-6-methyl-2-(piperazin-1-yl)-4-(piperidin-4-ylmethoxy)-1H-benzo[d]imidazole]
–	< 5.30	Cc1cc2nc(S(=O)(=O)CCN)n(Cc3ccc(F)c(Cl)c3)c2cc1C [Example 211, 2-((1-(3-chloro-4-fluorobenzyl)-5,6-dimethyl-1H-benzo[d]imidazol-2-yl)sulfonyl)ethan-1-amine trifluoroacetate]
–	5.30 to 6.00	Cc1cc2nc(N3C[C@@H](C)N[C@@H](C)C3)n(Cc3cc(C)c(F)c(C)c3)c2cc1C [Example 336, 2-((3S,5R)-3,5-dimethylpiperazin-1-yl)-1-(4-fluoro-3,5-dimethylbenzyl)-5,6-dimethyl-1H-benzo[d]imidazole]
